Assay results as given in ChEMBL document CHEMBL3507680, “University of Dundee, Gates Library screen for HepG2 cell viability”.

Test: Human HepG2 cell viability assay in 384 well format
Assay type: toxicity, cell-based
Parameters: dose 125 nL, time 70.5 hour; cytotoxicity at 70.5 h: concentration not given beside the values
Conditions: HepG2 cells, read-out: Inhibition

Structure (SMILES)	cytotoxicity at 70.5 h [%]
O=C1[C@H]2CN(c3ncccn3)C[C@H]2CN1CCN1CCCC1	-47.2
CN(CC(=O)N(C)C1CCCCC1)Cc1nc2c(cnn2C)c(=O)[nH]1	8.15
CCOc1ccc(Cl)c(C(=O)NCCC(=O)Nc2ccccn2)n1	-6.63
CCOCC(=O)N1C[C@@H]2COC[C@H](c3nc(C)no3)[C@@H]2C1	-2.34
CC(C)c1noc(CS(=O)(=O)Cc2nc(C(C)C)no2)n1	-7.1
CS(=O)(=O)NCCCN1CCCC1c1ccccc1 (stereo not drawn)	20
O=C(Nc1cnc(C2CC2)nc1)N1CCCC1	-1.33
C/C=C(\C)CN1CCCn2nc(CNC(=O)C3CCC3)cc2C1	-11.6
CN1CCN(c2ncc3c(=O)n(-c4cccc(F)c4)c(=O)[nH]c3n2)CC1	-12.6
CCC1(O)CCCN(c2nc(C(C)(C)C)nc3c2cnn3C)C1 (stereo not drawn)	-9.12
Cc1ccc2cc(C(=O)N3CCS(=O)(=O)CC3)[nH]c2c1	-12.3
O=C(O)c1ccc(=O)n(CC(c2ccc(F)cc2)N2CCCCCC2)c1 (stereo not drawn)	-7.77
Cc1cc(=O)[nH]c(-n2nc(C)c(CCC(=O)NCc3cccs3)c2C)n1	-0.337
CC(=O)N1CCCC1c1cccc(Cc2ccc(F)cc2)n1 (stereo not drawn)	-14.3
CC(NC(=O)NCc1ccoc1)c1ccc2c(c1)CC(=O)N2 (stereo not drawn)	-4.73
Cn1cc(CCC(=O)NC(c2ccc(F)cc2)C(F)(F)F)cn1 (stereo not drawn)	-8.97
CSc1nc(C2CC2)nc(C)c1C(=O)NCc1cc(C)on1	-0.104
CC1c2ncc(COCC3CC3)n2CCN1C (stereo not drawn)	-4.63
O=C(Nc1ncn(CC(=O)N2CCCCCC2)n1)C1CCCC1	-7.56
O=C(C1=CCCC1)N1C[C@@H]2COC[C@]2(COc2cccnc2)C1	-5.78
CC(c1nc(C(C)(C)C)no1)N1CCN(Cc2ccc(C#N)cc2)CC1 (stereo not drawn)	-1.19
Cc1ccc(C(=O)NC(C)Cn2cccn2)c(=O)[nH]1 (stereo not drawn)	8.15
O=C(NCC1CC1)C1CSCN1S(=O)(=O)c1cccc(F)c1 (stereo not drawn)	-0.541

Structure (SMILES)	cytotoxicity at 70.5 h [%]
CC(C)CN1CCS(=O)(=O)[C@@H]2CCN(S(=O)(=O)C3CC3)CC[C@@H]21	-16.5
COCCN(C)C[C@@H]1CN(C(=O)c2ccc3c(c2)OCO3)C[C@@H]1CO	-12.8
O=C(COCc1ccccc1)N1CCC(OCc2cccnc2)CC1	-3.09
Cc1nc(C(C)(C)NCc2nnc(C(C)C)o2)sc1C	1.69
CN(C)C(=O)[C@H]1C[C@@H]2CCN(C3CCOCC3)C[C@H]2O1	-8.09
O=C(NCCN1CCC(c2cccs2)CC1)c1ccc(F)cc1Cl	-3.13
Cc1csc2ncnc(N3CCC(Cn4cc(C(C)(C)O)nn4)CC3)c12	5.18
COc1ccc(CN2CCCC2Cn2nc(C)nc2C)cc1F (stereo not drawn)	-18.3
Cc1cc(N2C[C@H](C3CC3)[C@@H](N)C2)nc(N2CCCCC2)n1	3.53
CC(=O)N1CCN(c2cc(CCN)nc(C3CC3)n2)CC1	-1.97
Cc1cc(C)n(CCCNc2ncnc3c2NC(=O)CN3)n1	-8.3
c1cnnc(N2CCCC2CNCCc2cccs2)c1 (stereo not drawn)	-7.61
O=C(CC(SC1CCCCC1)C(=O)O)c1ccc(Br)cc1 (stereo not drawn)	0.38
Cn1cc(-c2ncc3c(c2C(=O)O)CCN(CC2CCOC2)C3)cn1 (stereo not drawn)	-3.12
O=C1CC2(CCN(CC3CC3)C2)CN1c1cccc(F)c1 (stereo not drawn)	6.96
Cc1n[nH]cc1CNCC(c1ccsc1)N(C)C (stereo not drawn)	-7.79
Cc1ccn(-c2ccc(C(=O)N3CCCC(C(N)=O)C3)cc2)n1 (stereo not drawn)	-9.79
COC(=O)[C@@H]1Cc2ncn(C)c2CN1S(=O)(=O)c1ccc(OC)cc1	-3.58
N#Cc1cccc(CS(=O)(=O)NCCC(O)c2ccccc2)c1 (stereo not drawn)	-10
NS(=O)(=O)CCNC(=O)c1cc2cccc(F)c2o1	18
CCc1cn[nH]c1C1CCN(c2cc(C)c3ccc(OC)cc3n2)CC1	9.99
Cc1cc(C(=O)N2CC[C@@H]3CN(S(C)(=O)=O)CCO[C@@H]3C2)c(C)o1	-5.13
CO[C@H]1CCN(Cc2nccs2)C[C@@H]1Cc1ccccc1	-0.233

Structure (SMILES)	cytotoxicity at 70.5 h [%]
Cc1nc(N2CCOCC2)nc2c1CCN(C(=O)C1CCCCC1)CC2	0.0722
Cc1nnc(N2CC[C@@H](OCC3CC3)[C@@H](Cc3ccccc3)C2)s1	-7.86
COCCc1noc(CN2CCCC2c2c(C)nn(C)c2C)n1 (stereo not drawn)	-8.48
c1cncc(C2COC3(CCN(CC4CC4)CC3)C2)c1 (stereo not drawn)	-0.218
CC1CCCCN1CCNC(=O)c1ccn(-c2ccccc2)n1 (stereo not drawn)	13.6
COc1c(C2CCCN2C(=O)c2ccc(C#N)cc2)c(C)nn1C (stereo not drawn)	-9.49
Cc1nc(C2CCCN2CC(=O)NCCc2ccsc2)no1 (stereo not drawn)	-2.7
Cc1ccc(-c2nc(CN3CCOC(CN(C)C)C3)co2)cc1 (stereo not drawn)	-5.51
CC(C)CN(CC(O)c1ccc(F)cc1)C(=O)c1cc[nH]n1 (stereo not drawn)	-3.9
COCc1nc(N(C)C)ncc1C(=O)Nc1cc(C)cc(C)c1	-6.56
CCOc1ccc(C(=O)CCC(=O)NCCc2nncn2CC)cc1C	22.5
O=S(=O)(NCC1CCN(c2ccccn2)CC1)c1ccccc1F	33.3
Cc1noc(C)c1S(=O)(=O)NCC(C)(O)c1ccc2c(c1)OCO2 (stereo not drawn)	-3.11
Cc1cccnc1CNC[C@H]1Cn2cc(-c3ccccc3)nc2CO1	-6.83
CC(C)c1nccn1C(C)C(=O)NC1Cc2ccccc2C1 (stereo not drawn)	-1.16
Cc1nc(CN2CCO[C@@H]3CNCC[C@@H]3C2)cs1	-5.71
CCOCc1cnc2n1CCN(Cc1nc(C)cs1)C2C (stereo not drawn)	-3.1
Cc1ccc(C(C)(O)CNC(=O)NCCc2ccc3c(c2)CCO3)o1 (stereo not drawn)	26.1
CN(C)C(=O)COCc1cncc2c1CCN(Cc1cnn(C)c1)C2	-8.65
CC(C)n1ccnc1C1CCN(C(=O)c2cc[nH]n2)CC1	-10.9
CN(Cc1ccc2nsnc2c1)CC1(O)CCNC1 (stereo not drawn)	-5.93
CC(C)c1nn(C)c(N(C)C)c1CNCc1ccccc1CO	0.684
CNC(=O)c1nc2c(s1)CCN(C(=O)c1cccc(OC)c1)CC2	-10

Structure (SMILES)	cytotoxicity at 70.5 h [%]
COCC1CC2(CCN(c3cccc(C)n3)CC2)CN1c1ncccn1 (stereo not drawn)	-10.3
NC(=O)Nc1cc(F)ccc1SCC(F)F	-8.84
Cc1nc(C)n(CC2CCCCN2Cc2cscn2)n1 (stereo not drawn)	-5.99
CN(C)c1ccc(C(=O)N2CCCN(C3CCCCC3)CC2)cn1	-7.27
CCC(Nc1nnnn1-c1ccccc1)C(=O)NCc1ccsc1 (stereo not drawn)	-12.5
COc1ccc(C2=CCN(C(=O)C3CC(=O)N(C4CC4)C3)CC2)cc1 (stereo not drawn)	-12.9
COc1ccc(-c2cc(N)on2)cc1OC	-2.02
Cc1ccc(C2(O)CCN(C(=O)CCn3c(C)cccc3=O)CC2)nc1	27.8
CCSc1nnc([C@@H](N)CC(C)C)o1	-7.55
COc1ccc(OCCNC(=O)CN(C)Cc2nnc(C)n2C)cc1	29.6
CCCc1noc(CNc2ccc(C(=O)N3CCCC3)cc2C)n1	-0.0635
O=C(NC1CCCN(c2ccc(OC(F)F)cc2)C1)c1c[nH]nn1 (stereo not drawn)	18.5
CN(C)CC1(O)CCN(S(=O)(=O)c2ccc(F)c(F)c2)C1 (stereo not drawn)	32.6
CC1=Nc2c(c(=O)[nH]n2C(C)C)C(c2cccc(OC(F)F)c2)S1 (stereo not drawn)	-17.2
CNc1nc(CNC(=O)Nc2ccc(OC(C)C)cc2C)cs1	-2.53
Cc1cc(CN2CC[C@@H]3[C@@H](CCC(=O)N3CCc3c[nH]cn3)C2)oc1C	1.03
CC(C)c1ncc2c(n1)CN(Cc1nnc(Cc3ccccc3)o1)CC2	-5.27
O=C(c1ccc(Cl)cc1)N1CCC2(C1)C(=O)Nc1ccccc12 (stereo not drawn)	-7.9
CCN(CCc1nccs1)C(=O)c1ccco1	-7.04
CS(=O)(=O)NC1CCCN(C(=O)NCc2ccccc2Cl)C1 (stereo not drawn)	-2.53
Cc1nn(C)c(C)c1CC(=O)N1CCc2nnc(N(C)C)cc2C1	-5.78
COc1c(C(=O)NC(C)Cc2ccccc2Cl)c(C)nn1C (stereo not drawn)	3.5
Cc1ccccc1-c1cncc(C2CCN(Cc3ccccn3)CC2)n1	-3.39

Structure (SMILES)	cytotoxicity at 70.5 h [%]
CC(C)c1ncc2c(n1)CN(Cc1nc(Cc3ccccc3)no1)CC2	-24.3
Cc1cnc(CN2CCCC(c3nc4ccccc4n3C(C)C)C2)o1 (stereo not drawn)	20.6
CN(C)C(=O)CNC(=O)c1cc2ccccc2nc1N1CCCC1	-7.99
CN1CCN(C2COC3(CCN(CC4CC4)CC3)C2)CC1 (stereo not drawn)	0.151
CN1CCc2c(C#N)c(NCc3ccncc3)n3cnnc3c2C1	-14.7
CCN(CC)c1ccc(NC(=O)NC(C)Cn2cccn2)cn1 (stereo not drawn)	-6.74
CCN(CC)S(=O)(=O)N1CCCC(c2nccn2Cc2cccnc2)C1 (stereo not drawn)	-5.79
N#Cc1ccc(CN2CCC(CN3CCOCC3)C2)cc1 (stereo not drawn)	-5.35
CCOc1ccc(Cl)c(C(=O)N(C)C)n1	-2.99
CN(C)CC(=O)N1CC2(CCN(C(=O)Nc3ccccc3)C2)C1	22.9
Cc1nc(NCCO)cc(C(C)Cn2nc(C)c(C)c2C)n1 (stereo not drawn)	-3.69
Cc1nc2ccc(C(=O)N3CCn4c(C)nnc4C3)cc2nc1C	-5.63
CC(C)c1ncc2c(n1)CN(CC(=O)Nc1ccc(Cl)cn1)CC2	-10.8
Cc1ccc(C2(CN3CCN(c4ncccn4)CC3)CCNCC2)nc1	-1.1
CC(=O)NCC1CCCN(Cc2nc(Cc3ccccc3F)no2)C1 (stereo not drawn)	0.817
Cc1cc(C(=O)N2CCCC2)ccc1NCCOCC(F)(F)F	9.16
CCOc1nnc(CN2CCC(N(C)Cc3noc(C)n3)C2)s1 (stereo not drawn)	-8.7
Cc1nccn1C1CCCN(C(=O)CCNc2ncccn2)C1 (stereo not drawn)	-3.44
Cc1cccc2[nH]cc(CC(=O)N3CCC(Nc4cccnn4)CC3)c12	0.978
CCOC[C@@H]1CC[C@H]2[C@H](CCN2C(=O)c2cnccn2)O1	2.78
CC(C)c1nnc(CN2CC(n3cccn3)C2)o1	-6.56
